Test results taken from patent US20130210809A1, “NOVEL 2-AMINO-4-PYRAZOLYL-THIAZOLE DERIVATIVES AND THEIR USE AS ALLOSTERIC MODULATORS OF METABOTROPIC GLUTAMATE RECEPTORS” (priority 2010, published 2013).

Key:
[1] = target: T1, recombinant human mGluR4a receptors (Homo sapiens, UniProt Q14833); assay: mGluR4 assay on HEK-expressing human mGluR4 (fluorescent cell based Ca2+ mobilization assay, FLIPR); conditions: HEK-293 cells expressing hmGluR4; enhancement of EC25 glutamate response; mean of at least three independent experiments in duplicate; read-out: Ca^2+ Flux (mean EC50)
T1 construct: expressed in transfected cells
From the text: mGluR4 Assay on HEK-Expressing Human mGluR4
The compounds of the present invention are positive allosteric modulators of mGluR4 receptor. Their activity was examined on recombinant human mGluR4a receptors by detecting changes in intracellular Ca^2+ concentration, using the fluorescent Ca^2+-sensitive dye Fluo4-(AM) and a Fluorometric Imaging Plate Reader (FLIPR, Molecular Devices, Sunnyvale, Calif.).
The cDNA encoding the human metabotropic glutamate receptor (hmGluR4), (accession number NM_000841.1, NCBI Nucleotide database browser), was subcloned into an expression vector containing also the Hygromycin resistance gene. In parallel, the cDNA encoding a G protein allowing redirection of the activation signal to intracellular calcium flux was subcloned into a different expression vector containing also the Puromycin resistance gene. Transfection of both these vectors into HEK293 cells with PolyFect reagent (Qiagen) according to supplier's protocol, and hygromycin and puromycin treatment allowed selection of antibiotic resistant cells which had integrated stably one or more copies of the plasmids. Positive cellular clones expressing hmGluR4 were identified in a functional assay measuring changes in calcium flux in response to glutamate or selective known mGluR4 orthosteric agonists and antagonists. HEK-293 cells expressing hmGluR4 were maintained in media containing DMEM, dialyzed Fetal Calf Serum (10%), Glutamax™ (2 mM), Penicillin (100 units/mL), Streptomycin (100 μg/mL), Geneticin (100 μg/mL) and Hygromycin-B (40 μg/mL) and Puromycin (1 μg/mL) at 37° C./5% CO2.
Human mGluR4 HEK-293 cells were plated out 24 hours prior to FLIPR^384 assay in black-walled, clear-bottomed, poly-L-ornithine-coated 384-well plates at a density of 25,000 cells/well in a glutamine/glutamate free DMEM medium containing foetal bovine serum (10%), penicillin (100 units/mL) and streptomycin (100 μg/mL) at 37° C./5% CO2.
On the day of the assay, the medium was aspirated and the cells were loaded with a 3 μM solution of Fluo4-AM (LuBioScience, Lucerne, Switzerland) in 0.03% pluronic acid. After 1 hour at 37° C./5% CO2, the non incorporated dye was removed by washing cell plate with the assay buffer and the cells were left in the dark at it for six hours before testing. All assays were performed in a pH 7.4 buffered-solution containing 20 mM HEPES, 143 mM NaCl, 6 mM KCl, 1 mM MgSO4, 1 mM CaCl2, 0.125 mM sulfapyrazone and 0.1% glucose.
After 10 s of basal fluorescence recording, various concentrations of the compounds of the invention were added to the cells. Changes in fluorescence levels were first monitored for 180 s in order to detect any agonist activity of the compounds. Then the cells were stimulated by an EC25 glutamate concentration for an additional 110 s in order to measure enhancing activities of the compounds of the invention. EC25 glutamate concentration is the concentration giving 25% of the maximal glutamate response.
The concentration-response curves of representative compounds of the present invention were generated using the Prism GraphPad software (Graph Pad Inc, San Diego, USA). The curves were fitted to a four-parameter logistic equation:
(Y=Bottom+(Top−Bottom)/(1+10̂((Log EC50-X)*Hill Slope)
allowing the determination of EC50 values.
The Table 3 below represents the mean EC50 obtained from at least three independent experiments of selected molecules performed in duplicate.

T1 sequence (Q14833 33-912): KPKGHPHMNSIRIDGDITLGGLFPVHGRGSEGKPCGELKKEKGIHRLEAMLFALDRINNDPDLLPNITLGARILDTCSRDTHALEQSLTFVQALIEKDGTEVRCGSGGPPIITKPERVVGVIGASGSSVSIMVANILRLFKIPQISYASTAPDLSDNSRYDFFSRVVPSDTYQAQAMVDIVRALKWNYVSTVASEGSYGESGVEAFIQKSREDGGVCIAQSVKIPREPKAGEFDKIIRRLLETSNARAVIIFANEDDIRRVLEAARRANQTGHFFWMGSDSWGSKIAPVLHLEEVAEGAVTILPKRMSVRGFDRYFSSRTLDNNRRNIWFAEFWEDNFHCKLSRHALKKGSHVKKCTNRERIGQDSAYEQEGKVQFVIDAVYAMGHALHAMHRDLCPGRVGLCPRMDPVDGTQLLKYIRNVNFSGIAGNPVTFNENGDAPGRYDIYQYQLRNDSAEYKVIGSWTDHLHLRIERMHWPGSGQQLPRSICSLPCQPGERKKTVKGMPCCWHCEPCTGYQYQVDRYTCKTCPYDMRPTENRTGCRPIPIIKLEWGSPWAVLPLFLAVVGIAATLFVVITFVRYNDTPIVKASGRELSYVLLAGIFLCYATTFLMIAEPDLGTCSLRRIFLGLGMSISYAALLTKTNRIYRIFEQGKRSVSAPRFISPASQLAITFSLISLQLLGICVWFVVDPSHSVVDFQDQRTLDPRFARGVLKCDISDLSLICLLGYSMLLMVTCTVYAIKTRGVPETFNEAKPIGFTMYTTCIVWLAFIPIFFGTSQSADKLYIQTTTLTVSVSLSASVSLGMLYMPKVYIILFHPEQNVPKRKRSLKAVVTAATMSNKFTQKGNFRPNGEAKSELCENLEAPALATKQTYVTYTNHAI

| Compound | EC50 [1] | melting point |
| --- | --- | --- |
| CC(=O)c1sc(Nc2nccc(C)n2)nc1-c1cn[nH]c1 [Compound 1-46, 1-(2-(4-Methylpyrimidin-2-ylamino)-4-(1H-pyrazol-4-yl)thiazol-5-yl)ethanone] | 100 to 1000 nM | 288 to 291 °C |
| Cc1ccnc(Nc2nc(-c3c[nH]nc3C(=O)c3ccccc3)cs2)n1 [Compound 1-25, (4-(2-(4-Methylpyrimidin-2-ylamino)thiazol-4-yl)-1H-pyrazol-3-yl)(phenyl)methanone] |  | 254 to 255 °C |
| Cc1ccnc(Nc2nc(-c3cn[nH]c3C(=O)C3CC3)cs2)n1 [Compound 1-27, Cyclopropyl(4-(2-(4-methylpyrimidin-2-ylamino)thiazol-4-yl)-1H-pyrazol-5-yl)methanone] | 100 to 1000 nM | 239 to 240 °C |
| Cc1ccnc(Nc2nc(-c3c[nH]nc3-c3cccc(N(C)C)c3)cs2)n1 [Compound 1-30, 4-(3-(3-(Dimethylamino)phenyl)-1H-pyrazol-4-yl)-N-(4-methylpyrimidin-2-yl)thiazol-2-amine] | 1000 to 10000 nM | 239 to 241 °C |
| Cc1ccnc(Nc2nc(-c3c[nH]nc3C(O)c3ccccc3)cs2)n1 (stereo not shown) [Compound 1-26, (4-(2-(4-Methylpyrimidin-2-ylamino)thiazol-4-yl)-1H-pyrazol-3-yl)(phenyl)methanol] | 1000 to 10000 nM | 249.5 °C |
| COc1ccc(F)cc1-c1n[nH]cc1-c1csc(Nc2nccc(C)n2)n1 [Compound 1-5, 4-(3-(5-Fluoro-2-methoxyphenyl)-1H-pyrazol-4-yl)-N-(4-methylpyrimidin-2-yl)thiazol-2-amine] | 100 to 1000 nM | 247 °C |
| Cc1ccnc(Nc2nc(-c3cn[nH]c3COC3CCC3)cs2)n1 [Compound 1-28, 4-(5-(Cyclobutoxymethyl)-1H-pyrazol-4-yl)-N-(4-methylpyrimidin-2-yl)thiazol-2-amine] | 100 to 1000 nM |  |
| COc1ccccc1-c1n[nH]cc1-c1csc(Nc2nccc(C)n2)n1 [Compound 1-11, 4-(3-(2-Methoxyphenyl)-1H-pyrazol-4-yl)-N-(4-methylpyrimidin-2-yl)thiazol-2-amine] | 1000 to 10000 nM |  |
| COC(=O)N1CC=C(c2n[nH]cc2-c2csc(Nc3nccc(C)n3)n2)CC1 [Compound 1-41, Methyl 4-(4-(2-(4-methylpyrimidin-2-ylamino)thiazol-4-yl)-1H-pyrazol-3-yl)-5,6-dihydropyridine-1 (2H)-carboxylate] | 1000 to 10000 nM |  |
| Cc1ccnc(Nc2nc(-c3c[nH]nc3-c3ccc(C(O)C(F)(F)F)cc3)cs2)n1 (stereo not shown) [Compound 1-6, 2,2,2-Trifluoro-1-(4-(4-(2-(4-methylpyrimidin-2-ylamino)thiazol-4-yl)-1H-pyrazol-3-yl)phenyl)ethanol] | 1000 to 10000 nM |  |
| Cc1ccnc(Nc2nc(-c3c[nH]nc3C(F)F)cs2)n1 [Compound 1-1, 4-(3-(Difluoromethyl)-1H-pyrazol-4-yl)-N-(4-methylpyrimidin-2-yl)thiazol-2-amine] | < 100 nM |  |
| Cc1ccnc(Nc2nc(-c3c[nH]nc3-c3cnn4c3CCC4)cs2)n1 [Compound 1-8, 4-(3-(5,6-Dihydro-4H-pyrrolo[1,2-b]pyrazol-3-yl)-1H-pyrazol-4-yl)-N-(4-methylpyrimidin-2-yl)thiazol-2-amine] | 1000 to 10000 nM |  |
| 3-(3-(2-(Pyrimidin-2-ylamino)thiazol-4-yl)-1H-pyrazol-4-yl)benzonitrile [Compound 1-43] | < 100 nM |  |
| CCOc1ccccc1-c1n[nH]cc1-c1csc(Nc2nccc(C)n2)n1 [Compound 1-23, 4-(3-(2-Ethoxyphenyl)-1H-pyrazol-4-yl)-N-(4-methylpyrimidin-2-yl)thiazol-2-amine] | 1000 to 10000 nM |  |
